Experimental data reported in patent publication US11642349B2, “Method for treating cancer” (Epizyme, Inc., priority 2015, dated 2023).

How the values were obtained:
[1] = test system: INI1-deleted malignant rhabdoid tumor (MRT) models; test: INI1-deleted malignant rhabdoid tumor (MRT) models in vitro; assay type: cell-based
MRT xenograft = test: MRT xenograft-bearing mice; assay type: in vivo
oral bioavailability = conditions: in vivo

oral bioavailability (oral bioavailability): orally bioavailable
Structure (SMILES): CCN(c1cc(-c2ccc(CN3CCOCC3)cc2)cc(C(=O)NCc2c(C)cc(C)[nH]c2=O)c1C)C1CCOCC1 [EPZ-6438]
apoptosis and differentiation [1]: induce apoptosis and differentiation
apoptosis and differentiation (MRT xenograft): induce apoptosis and differentiation
